From the NIST ThermoML archive (doi:10.1021/je101151f)
Numbers after ± are expanded uncertainties.

conditions: Liquid; Manometric method

| Normal boiling temperature | SMILES |
| --- | --- |
| 176.24 ± 0.31 °C | Cc1ccc(C(C)C)cc1 [1-(1-methylethyl)-4-methylbenzene] |
| 177.19 ± 0.36 °C | C=C(C)[C@@H]1CC=C(C)CC1 [(S)-1-methyl-4-(1-methylethenyl)cyclohexene] |
| 165.80 ± 0.31 °C | C=C1CCC2CC1C2(C)C (stereo not drawn) [β-pinene] |
